From patent US20250206757A1 (GASHERBRUM BIO, INC., priority 2022, published 2025)

Target: GLP-1 Receptor (Homo sapiens, UniProt P43220)
Assay: GLP-1R agonist cAMP stimulation assay (HEK293/GLP1R/CRE-LUC cells, HTRF cAMP dynamic 2 kit)
Format: cell-based
Settings: HEK293/CRE-Luc cell line stably expressing the GLP-1 Receptor; 30 min incubation at 37° C.
Procedure: Activation of GLP-1 receptor is known to stimulate cyclic AMP (cAMP) production in cells which indicates primary coupling to the Gas subunit of the G protein heterotrimeric complex.
To optimize functional activity directed toward Gas coupling, a HEK293/CRE-Luc cell line developed by HDB stably expressing the GLP-1 Receptor was used. 200× concentration of compound working solutions were prepared (Agilent Technologies Bravo) with 1/2 log serial dilution in 384-well Echo LDV plate (Labcyte, Cat #LP-0200). 50 nL/well 200× concentration of compound working solutions were moved to 384-well white low volume plate (Greiner, Cat #784075) using Labcyte ECHO550. 1×10^5 cells/mL HEK293/GLP1R/CRE-LUC (HD Biosciences) cell suspensions prepared with assay buffer [DPBS containing 0.5 mM IBMX (Sigma, Cat #15879) and 0.10% BSA (GENVIEW, Cat #FA016-100g)], 10 μL cell suspensions were added to each well of previous generated assay plate which already contains 50 nL compound at 200× concentration using ThermoFisher Multidrop Combi (1000 cells/well). Seal the plate and incubate at 37° C. with 5% CO2 for 30 min.
After incubation the cAMP assay signal was generated using cAMP dynamic 2 Kit (Cisbio). 5 μL cAMP-d2 working solution was added to each well, followed with 5 μL Anti-cAMP antibody-cryptate working solution added to each well using ThermoFisher Multidrop Combi. Incubate at room temperature for 1 hour protected from light. Read the fluorescence at 665 and 615 nm with Reader PerkinElmer EnVision.

Chain of GLP-1 Receptor (P43220 24-463): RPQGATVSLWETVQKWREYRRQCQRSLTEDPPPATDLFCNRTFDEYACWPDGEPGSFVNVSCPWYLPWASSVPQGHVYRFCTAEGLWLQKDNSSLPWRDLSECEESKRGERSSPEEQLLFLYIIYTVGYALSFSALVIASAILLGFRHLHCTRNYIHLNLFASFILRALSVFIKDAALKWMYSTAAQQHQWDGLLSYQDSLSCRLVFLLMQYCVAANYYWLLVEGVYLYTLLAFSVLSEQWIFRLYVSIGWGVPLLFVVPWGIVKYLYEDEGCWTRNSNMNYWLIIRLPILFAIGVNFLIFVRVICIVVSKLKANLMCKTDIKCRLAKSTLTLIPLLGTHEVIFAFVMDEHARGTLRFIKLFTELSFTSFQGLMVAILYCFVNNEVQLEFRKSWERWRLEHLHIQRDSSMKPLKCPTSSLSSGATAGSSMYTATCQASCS

Row | SMILES | EC50
1 | Fc1cc(Cl)ccc1COc1nc2c(cc1Cl)CCN(Cc1nc3cc(-c4nnc(C(F)(F)F)[nH]4)ncc3n1C[C@@H]1CCO1)C2 [Compound 5, 3-chloro-2-[(4-chloro-2-fluorophenyl)methoxy]-7-[(3-{1[(2S)-oxetan-2-yl]methyl}-6-[5-(trifluoromethyl)-4H-1,2,4-triazol-3-yl]-3H-imidazo[4,5-c]pyridin-2-yl)methyl]-5,6,7,8-tetrahydro-1,7-naphthyridine] | < 1 nM
2 | Fc1cc(Cl)ccc1COc1nc2c(cc1C(F)(F)F)CCN(Cc1nc3cc(-c4nnc(C(F)(F)F)[nH]4)ncc3n1C[C@@H]1CCCO1)C2 [Compound 79, 2-[(4-chloro-2-fluorophenyl)methoxy]-7-[(3-{1[(2S)-oxolan-2-yl]methyl}-6-[5-(trifluoromethyl)-4H-1,2,4-triazol-3-yl]-3H-imidazo[4,5-c]pyridin-2-yl)methyl]-3-(trifluoromethyl)-5,6,7,8-tetrahydro-1,7-naphthyridine] | 1 to 300 nM
3 | Fc1cc(Cl)ccc1COc1nc2c(cc1C(F)(F)F)CCN(Cc1nc3cc(-c4nnc(C(F)(F)F)[nH]4)nnc3n1C[C@@H]1CCO1)C2 [Compound 6, 2-[(4-chloro-2-fluorophenyl)methoxy]-7-[(7-{[(2S)-oxetan-2-yl]methyl}-3-[5-(trifluoromethyl)-4H-1,2,4-triazol-3-yl]-7H-imidazo[4,5-c]pyridazin-6-yl)methyl]-3-(trifluoromethyl)-5,6,7,8-tetrahydro-1,7-naphthyridine] | < 1 nM
4 | N#Cc1cc2c(nc1OCc1c(F)cc(Cl)cc1F)CN(Cc1nc3cc(-c4nnc(C(F)(F)F)[nH]4)ncc3n1C[C@@H]1CCO1)CC2 [Compound 71, 2-[(4-chloro-2,6-difluorophenyl)methoxy]-7-[(3-{[(2S)-oxetan-2-yl]methyl}-6-[5-(trifluoromethyl)-4H-1,2,4-triazol-3-yl]-3H-imidazo[4,5-c]pyridin-2-yl)methyl]-5,6,7,8-tetrahydro-1,7-naphthyridine-3-carbonitrile] | < 1 nM
5 | Fc1cc(Cl)ccc1COc1nc2c(cc1C(F)(F)F)CCN(Cc1nc3cc(-c4nnc(C(F)(F)F)[nH]4)ncc3n1C[C@@H]1CCO1)C2 [Compound 4, 2-[(4-chloro-2-fluorophenyl)methoxy]-7-[(3-{[(2S)-oxetan-2-yl]methyl}-6-[5-(trifluoromethyl)-4H-1,2,4-triazol-3-yl]-3H-imidazo[4,5-c]pyridin-2-yl)methyl]-3-(trifluoromethyl)-5,6,7,8-tetrahydro-1,7-naphthyridine] | < 1 nM
6 | O=C(NCC(F)(F)F)c1ccc2c(nc(CN3CCc4cc(C(F)(F)F)c(OCc5ccc(Cl)cc5F)nc4C3)n2C[C@@H]2CCO2)c1F [Compound 21, 2-({2-[(4-chloro-2-fluorophenyl)methoxy]-3-(trifluoromethyl)-5,6,7,8-tetrahydro-1,7-naphthyridin-7-yl}methyl)-4-fluoro-1-{[(2S)-oxetan-2-yl]methyl}-N-(2,2,2-trifluoroethyl)-1H-1,3-benzodiazole-5-carboxamide] | 1 to 300 nM
7 | O=c1[nH]c(-c2cnc3c(c2)nc(CN2CCc4cc(C(F)(F)F)c(OCc5c(F)cc(Cl)cc5F)nc4C2)n3C[C@@H]2CCO2)no1 [Compound 30, 3-[2-({2-[(4-chloro-2,6-difluorophenyl)methoxy]-3-(trifluoromethyl)-5,6,7,8-tetrahydro-1,7-naphthyridin-7-yl}methyl)-3-{[(2S)-oxetan-2-yl]methyl}-3H-imidazo[4,5-b]pyridin-6-yl]-4,5-dihydro-1,2,4-oxadiazol-5-one] | < 1 nM
8 | Cc1cc2c(nc1OCc1c(F)cc(Cl)cc1F)CN(Cc1nc3cc(-c4nnc(C(F)F)[nH]4)ncc3n1C[C@@H]1CCO1)CC2 [Compound 56, 2-[(4-chloro-2,6-difluorophenyl)methoxy]-7-({6-[5-(difluoromethyl)-4H-1,2,4-triazol-3-yl]-3-{[(2S)-oxetan-2-yl]methyl}-3H-imidazo[4,5-c]pyridin-2-yl}methyl)-3-methyl-5,6,7,8-tetrahydro-1,7-naphthyridine] | < 1 nM
9 | O=C(O)c1ccc2c(c1)nc(CN1CCc3cc(C(F)(F)F)c(OCc4ccc(Cl)cc4F)nc3C1)n2C[C@@H]1CCO1 [Compound 28, 2-({2-[(4-chloro-2-fluorophenyl)methoxy]-3-(trifluoromethyl)-5,6,7,8-tetrahydro-1,7-naphthyridin-7-yl}methyl)-1-{[(2S)-oxetan-2-yl]methyl}-1H-1,3-benzodiazole-5-carboxylic acid] | < 1 nM
10 | O=c1cc(-c2cc3nc(CN4CCc5cc(C(F)(F)F)c(OCc6ccc(Cl)cc6F)nc5C4)n(C[C@@H]4CCO4)c3cn2)cc[nH]1 [Compound 100, 4-[2-({2-[(4-chloro-2-fluorophenyl)methoxy]-3-(trifluoromethyl)-5,6,7,8-tetrahydro-1,7-naphthyridin-7-yl}methyl)-3-{1[(2S)-oxetan-2-yl]methyl}-3H-imidazo[4,5-c]pyridin-6-yl]-1,2-dihydropyridin-2-one] | > 300 nM
11 | N#Cc1cc2c(nc1OCc1c(F)cc(Cl)cc1F)CN(Cc1nc3cc(-c4noc(=O)[nH]4)ccc3n1C[C@@H]1CCO1)CC2 [Compound 70, 2-[(4-chloro-2,6-difluorophenyl)methoxy]-7-[(1-{[(2S)-oxetan-2-yl]methyl}-5-(5-oxo-4,5-dihydro-1,2,4-oxadiazol-3-yl)-1H-1,3-benzodiazol-2-yl)methyl]-5,6,7,8-tetrahydro-1,7-naphthyridine-3-carbonitrile] | < 1 nM
12 | COC(C)Cn1c(CN2CCc3cc(C(F)(F)F)c(OCc4ccc(Cl)cc4F)nc3C2)nc2cc(-c3nnc(C(F)(F)F)[nH]3)ncc21 (stereo in doubt) [Compound 81, 2-[(4-chloro-2-fluorophenyl)methoxy]-7-({3-[(2S)-2-methoxypropyl]-6-[5-(trifluoromethyl)-4H-1,2,4-triazol-3-yl]-3H-imidazo[4,5-c]pyridin-2-yl}methyl)-3-(trifluoromethyl)-5,6,7,8-tetrahydro-1,7-naphthyridine] | 1 to 300 nM
13 | Fc1cc(Cl)ccc1COc1nc2c(cc1C(F)(F)F)CCN(Cc1nc3cc(-c4nnn[nH]4)ncc3n1C[C@@H]1CCO1)C2 [Compound 14, 2-[(4-chloro-2-fluorophenyl)methoxy]-7-[(3-{[(2S)-oxetan-2-yl]methyl}-6-(1H-1,2,3,4-tetrazol-5-yl)-3H-imidazo[4,5-c]pyridin-2-yl)methyl]-3-(trifluoromethyl)-5,6,7,8-tetrahydro-1,7-naphthyridine] | < 1 nM
14 | Cc1cc2c(nc1OCc1c(F)cc(Cl)cc1F)CN(Cc1nc3cc(-c4noc(=O)[nH]4)ccc3n1C[C@@H]1CCO1)CC2 [Compound 37, 3-[2-({2-[(4-chloro-2,6-difluorophenyl)methoxy]-3-methyl-5,6,7,8-tetrahydro-1,7-naphthyridin-7-yl}methyl)-1-{[(2S)-oxetan-2-yl]methyl}-1H-1,3-benzodiazol-5-yl]-4,5-dihydro-1,2,4-oxadiazol-5-one] | < 1 nM
15 | Cc1ccc(COc2nc3c(cc2C(F)(F)F)CCN(Cc2nc4c(F)c(-c5noc(=O)[nH]5)ccc4n2C[C@@H]2CCO2)C3)c(Cl)c1 [Compound 45] | < 1 nM
16 | Fc1cc(Cl)ccc1COc1nc2c(cc1C(F)(F)F)CCN(Cc1nc3cc(-c4nnc(C(F)(F)F)[nH]4)ncc3n1C[C@H]1CCOC1)C2 [Compound 76, 2-[(4-chloro-2-fluorophenyl)methoxy]-7-[(3-{[(3R)-oxolan-3-yl]methyl}-6-[5-(trifluoromethyl)-4H-1,2,4-triazol-3-yl]-3H-imidazo[4,5-c]pyridin-2-yl)methyl]-3-(trifluoromethyl)-5,6,7,8-tetrahydro-1,7-naphthyridine] | 1 to 300 nM
17 | CN(C)C(=O)c1nnc(-c2cc3nc(CN4CCc5cc(C(F)(F)F)c(OCc6ccc(Cl)cc6F)nc5C4)n(C[C@@H]4CCO4)c3cn2)[nH]1 [Compound 95, 5-[2-({2-[(4-chloro-2-fluorophenyl)methoxy]-3-(trifluoromethyl)-5,6,7,8-tetrahydro-1,7-naphthyridin-7-yl}methyl)-3-{[(2S)-oxetan-2-yl]methyl}-3H-imidazo[4,5-c]pyridin-6-yl]-N,N-dimethyl-4H-1,2,4-triazole-3-carboxamide] | 1 to 300 nM
18 | N#CC1(Cc2cc(-c3nnc(C(F)(F)F)[nH]3)cnc2CN2CCc3cc(C(F)(F)F)c(OCc4ccc(Cl)cc4F)nc3C2)CC1 [Compound 10, 1-{[2-({2-[(4-chloro-2-fluorophenyl)methoxy]-3-(trifluoromethyl)-5,6,7,8-tetrahydro-1,7-naphthyridin-7-yl}methyl)-5-[5-(trifluoromethyl)-4H-1,2,4-triazol-3-yl]pyridin-3-yl]methyl}cyclopropane-1-carbonitrile] | 1 to 300 nM
19 | Cc1ccc(COc2nc3c(cc2C(F)(F)F)CCN(Cc2nc4cc(-c5noc(=O)[nH]5)ncc4n2C[C@@H]2CCO2)C3)c(Cl)c1 [Compound 33, 3-[2-({2-[(2-chloro-4-methylphenyl)methoxy]-3-(trifluoromethyl)-5,6,7,8-tetrahydro-1,7-naphthyridin-7-yl}methyl)-3-{1[(2S)-oxetan-2-yl]methyl}-3H-imidazo[4,5-c]pyridin-6-yl]-4,5-dihydro-1,2,4-oxadiazol-5-one] | < 1 nM
